Data from ChEMBL document CHEMBL1156425, “Proteasome inhibition induces glutathione synthesis and protects cells from oxidative stress: relevance to Parkinson disease” (J Biol Chem, 2007).
Active and inactive are the calls of the source. The calls are words filed in the database; no cut-off is given here. Where a SMILES comes first, the peptide text is derived from it. The star is where a group is joined. Cbz = O=C(OCc1ccccc1)*; OtBu = CC(C)(C)O*

Key:
[1] = tested on: PC-12; experiment: Inhibition of hydrogen peroxide induced cytotoxicity in rat PC12 cells pretreated for 24 hrs assessed as elevation of intracellular glutathione level; format: functional, cell-based
[2] = tested on: PC-12; experiment: Inhibition of 6-hydroxydopamine induced cytotoxicity in rat PC12 cells pretreated for 24 hrs assessed as elevation of intracellular glutathione level; format: functional, cell-based
[3] = tested on: PC-12; experiment: Increase in reduced glutathione level in rat PC12 cells after 24 hrs; format: functional, cell-based
[4] = tested on: PC-12; experiment: Increase in glutathione level in differentiated rat PC12 cells after 24 hrs; format: functional, cell-based
[5] = tested on: PC-12; experiment: Inhibition of 6-hydroxydopamine induced cytotoxicity in differentiated rat PC12 cells pretreated for 24 hrs by lactate dehydrogenase release assay; format: functional, cell-based
[6] = tested on: PC-12; experiment: Increase in GLCLC subunit mRNA expression in rat PC12 cells at 1 uM after 12 hrs; format: functional, cell-based
[7] = tested on: PC-12; experiment: Inhibition of proteosome activity in rat PC12 cells at 0.1 uM after 6 hrs relative to control; format: cell-based; design: scale not given: the % may be the effect or the level left
[8] = tested on: PC-12; experiment: Reversal of increase in glutathione level in rat PC12 cells at 1 uM in presence of 30 uM PD-98059 after 24 hrs relative to control; format: functional
[9] = tested on: PC-12; experiment: Reversal of increase in glutathione level in rat PC12 cells at 1 uM in presence of 100 nM cycloheximide after 24 hrs relative to control; format: functional
[10] = tested on: PC-12; experiment: Increase in reduced glutathione level in rat PC12 cells at 1 uM after 24 hrs; format: functional
[11] = tested on: PC-12; experiment: Reversal of increase in glutathione level in rat PC12 cells at 1 uM in presence of 10 nM cycloheximide after 24 hrs relative to control; format: functional
[12] = tested on: PC-12; experiment: Reversal of increase in glutathione level in rat PC12 cells at 1 uM in presence of 10 uM SP600125 after 24 hrs relative to control; format: functional
[13] = tested on: PC-12; experiment: Reversal of increase in glutathione level in rat PC12 cells at 1 uM in presence of 30 uM SB-203580 after 24 hrs relative to control; format: functional
[14] = tested on: PC-12; experiment: Reversal of increase in glutathione level in rat PC12 cells at 1 uM in presence of 10 uM SB-203580 after 24 hrs relative to control; format: functional
[15] = tested on: PC-12; experiment: Reversal of increase in glutathione level in rat PC12 cells at 1 uM in presence of 3 uM BIM after 24 hrs relative to control; format: functional
[16] = tested on: PC-12; experiment: Inhibition of 6-hydroxydopamine induced cytotoxicity in differentiated rat PC12 cells pretreated for 24 hrs by MTT assay; format: functional, cell-based
[17] = tested on: PC-12; experiment: Inhibition of 6-hydroxydopamine-induced cytotoxicity in rat PC12 cells pretreated for 24 hrs by MTT assay; format: functional, cell-based
[18] = tested on: PC-12; experiment: Reversal of increase in glutathione level in rat PC12 cells at 1 uM in presence of 3 uM SB-203580 after 24 hrs relative to control; format: functional
[19] = tested on: PC-12; experiment: Reversal of increase in glutathione level in rat PC12 cells at 1 uM in presence of 30 nM cycloheximide after 24 hrs relative to control; format: functional
[20] = tested on: PC-12; experiment: Inhibition of proteosome activity in rat PC12 cells at 0.1 uM after 24 hrs relative to control; format: cell-based; design: scale not given: the % may be the effect or the level left
[21] = tested on: PC-12; experiment: Increase in oxidized glutathione level in rat PC12 cells at 1 uM after 12 hrs; format: functional, cell-based
[22] = tested on: PC-12; experiment: Inhibition of proteosome activity in rat PC12 cells at 0.3 uM after 6 hrs relative to control; format: cell-based; design: scale not given: the % may be the effect or the level left
[23] = tested on: PC-12; experiment: Inhibition of hydrogen peroxide induced cytotoxicity in rat PC12 cells pretreated for 24 hrs by MTT assay; format: functional, cell-based
[24] = tested on: PC-12; experiment: Reversal of increase in GLCLC subunit mRNA expression in rat PC12 cells at 1 uM after 12 hrs in presence of p38 MAPK inhibitor SB-203580; format: functional, cell-based
[25] = tested on: PC-12; experiment: Inhibition of 200 uM hydrogen peroxide induced ROS production in rat PC12 cells pretreated for 24 hrs by MTT assay; format: functional, cell-based
[26] = tested on: PC-12; experiment: Reversal of cytoprotection activity in rat PC12 cells pretreated at 1 uM for 24 hrs in presence of p38 MAPK inhibitor SB-203580; format: functional, cell-based
[27] = tested on: PC-12; experiment: Inhibition of 300 uM 6-hydroxydopamine induced ROS production in rat PC12 cells pretreated at 1 uM for 24 hrs by MTT assay; format: functional, cell-based
[28] = tested on: PC-12; experiment: Inhibition of 150 uM 6-hydroxydopamine induced ROS production in rat PC12 cells pretreated for 24 hrs by MTT assay; format: functional, cell-based
[29] = tested on: PC-12; experiment: Inhibition of 300 uM hydrogen peroxide induced ROS production in rat PC12 cells pretreated at 1 uM for 24 hrs by MTT assay; format: functional, cell-based
[30] = tested on: PC-12; experiment: Inhibition of proteosome activity in rat PC12 cells at 1 uM after 6 hrs relative to control; format: cell-based; design: scale not given: the % may be the effect or the level left
[31] = tested on: PC-12; experiment: Translocation of Nrf2 protein to nucleus in rat PC12 cells at 1 uM around 6 or 9 hrs; format: functional, cell-based
[32] = tested on: PC-12; experiment: Inhibition of proteosome activity in rat PC12 cells at 0.3 uM after 24 hrs relative to control; format: cell-based; design: scale not given: the % may be the effect or the level left
[33] = tested on: PC-12; experiment: Reversal of increase in glutathione level in rat PC12 cells at 1 uM in presence of 10 uM wortmannin after 24 hrs relative to control; format: functional
[34] = tested on: PC-12; experiment: Inhibition of proteosome activity in rat PC12 cells at 1 uM after 24 hrs relative to control; format: cell-based; design: scale not given: the % may be the effect or the level left
[35] = tested on: PC-12; experiment: Increase in oxidized glutathione level in rat PC12 cells at 1 uM after 24 hrs; format: functional, cell-based
[36] = tested on: PC-12; experiment: Cytotoxicity against rat PC12 cells after 24 hrs by MTT assay; format: functional, cell-based; conditions: PC-12, 24 h

CC(=O)N[C@@H](CS)C(=O)O
Activity [1]: Active | Activity [2]: Active

CC[C@H](C)[C@H](NC(=O)OCc1ccccc1)C(=O)N[C@@H](CCC(=O)OC(C)(C)C)C(=O)N[C@@H](C)C(=O)N[C@H](C=O)CC(C)C (Cbz-IE(OtBu)AL-aldehyde)
Activity [3]: Active

CC(C)C[C@@H](C=O)NC(=O)[C@H](CC(C)C)NC(=O)[C@H](CC(C)C)NC(=O)OCc1ccccc1 (Cbz-Leu-Leu-Leu-aldehyde)
Activity [3]: Active

CC(=O)N[C@@H](CSC(=O)[C@]1([C@@H](O)C(C)C)NC(=O)[C@H](C)[C@@H]1O)C(=O)O [LACTACYSTIN]
Activity [4]: Dose-dependent effect | Activity [5]: Active | Activity [6]: Active | Activity [7]: 98% | Activity [8]: 234 nmol/mg | Activity [9]: 98.3 nmol/mg | Activity [10]: 320.5 nmol/mg | Activity [11]: 216.8 nmol/mg | Activity [12]: 341.4 nmol/mg | Activity [13]: 133.5 nmol/mg | Activity [14]: 190.5 nmol/mg | Activity [15]: 354 nmol/mg | Activity [16]: Dose-dependent effect | Activity [17]: Dose-dependent effect | Activity [18]: 220 nmol/mg | Activity [19]: 150 nmol/mg | Activity [20]: 94.3% | Activity [21]: inactive | Activity [22]: 70.3% | Activity [23]: Dose-dependent effect | Activity [24]: Active | Activity [25]: Active | Activity [26]: Active | Activity [27]: Active | Activity [28]: Active | Activity [29]: Active | Activity [30]: 49.7% | Activity [31]: Active | Activity [32]: 84.9% | Activity [33]: 248.7 nmol/mg | Activity [34]: 77.2% | Activity [35]: Active | Activity [3]: Dose-dependent effect

NCCc1cc(O)c(O)cc1O [OXIDOPAMINE]
EC50 [36]: 106 µM
